# Where a SMILES comes first, the peptide text is derived from it. [ ]: non-standard residue; d: D form. pGlu = O=C1CC[C@@H](C(=O)O)N1
# Legend:
# [1] = test system: isolated recta of A. aegypti; assay: Rectal contraction assay (impedance converter); design: species or system Aedes aegypti; conditions: 1 μM, 2-min interval, mean of 6-18 preparations
# Protocol: Hindgut contraction assays were conducted on isolated […] of female A. aegypti. […] The isolated tissue was secured with minutien pins within a Sylgard-lined petri-dish. Given its high sequence similarity to endogenous A. aegypti PK2 peptides (Supplementary Table S1), we used the R. prolixus PK2b peptide ([Paluzzi and O'Donnell, 2012]), henceforth referred to as RhoprPK2b, for motility bioassays. Commercially synthesized peptides (Genscript, Piscataway, NJ, United States), […] ([…]) and RhoprPK2[…]), were used to examine myomodulatory activity. […] To assess whether PK1 peptides plays a role in regulating rectal motility, contractions were monitored in saline to obtain baseline contraction rates and subsequently following […] or 5-HT treatments, using probes connected to an impedance converter (UFI model 2991, Morro Bay, CA, United States) connected to a Powerlab 4/30 and laptop computer running LabChart […].0 software (AD Instruments, Colorado Springs, CO, United States). […] Probes were positioned on either side of the rectum by observation with a dissecting microscope (Olympus SZ61), and contractile responses were recorded on LabChart […].0 software (AD Instruments, Colorado Springs, CO, United States). Contractions were monitored for two minutes prior to, and after the addition of either […] or 5-HT. […]
# [2] = test system: isolated ilea of female A. aegypti; assay: Ileal motility assay (video recordings); design: species or system Aedes aegypti; conditions: Figure 6, 1 μM, 5-HT added together with 1 μM RhoprPK2b
# Protocol: Hindgut contraction assays were conducted on isolated […] of female A. aegypti. […] The isolated tissue was secured with minutien pins within a Sylgard-lined petri-dish. Given its high sequence similarity to endogenous A. aegypti PK2 peptides (Supplementary Table S1), we used the R. prolixus PK2b peptide ([Paluzzi and O'Donnell, 2012]), henceforth referred to as RhoprPK2b, for motility bioassays. Commercially synthesized peptides (Genscript, Piscataway, NJ, United States), […] ([…]) and RhoprPK2[…]), were used to examine myomodulatory activity. Serotonin (5-hydroxytryptamine, 5-HT; Sigma-Aldrich, Oakville, ON, Canada), previously shown to stimulate A. aegypti hindgut contractions ([Messer and Brown, 1995]), was used as a stimulatory control. Given the inhibitory properties of myoinhibitory peptides (having the consensus W(X6)W-NH2 carboxyl terminus) on insect hindgut motility ([Lange et al., 2012]), RhoprMIP-7 ([…]; Genscript, Piscataway, NJ, United States; [Paluzzi et al., 2015]) was used as an inhibitory control. […] Unlike the rectum, the mosquito ileum produces weaker contractions that we were unable to measure using an impedance converter as described above. […] The dissected gut was pinned in the midgut and rectum to allow the ileum to freely contract in saline and following treatments. Contractions were recorded for 2 min in saline that was used for baseline activity measurements, followed by three subsequent 2-min recordings, including: […] The RhoprPK2b was added along with the stimulatory or inhibitory compound (5-HT or RhoprMIP-7, respectively), to maintain its 1 μM concentration in the bath. […] To account for any potential changes in tissue contractile activity upon adding solutions to the bath, each of these variables were measured relative to baseline saline recordings of the same preparation as a ratio of change, where a value above or below one indicates an increase or a decrease, (respectively), in the rate, duration or length between each contraction in response to the treatment.
# A. aegypti PK1-R = assay: Heterologous functional receptor assay (aequorin bioluminescence), PK1-R; format: cell-based, Aedes aegypti; conditions: CHO-K1 cells expressing PK1-R; luminescent response
# From the text: The complete open reading frame was amplified based on the partial ([Nene et al., 2007]) and complete sequences ([Choi et al., 2013]) reported earlier for the A. aegypti PK1-R (Genbank accession: EAT35008.1) and PK2-R (Genbank accession: KC155994.1). Forward 5′-[…]-3′ (PK1-R) or 5′-[…]-3′ (PK2-R) and reverse 5′-[…]-3′ (PK1-R) or 5′-[…]-3′ (PK2-R) primers were designed over the start and stop codons (underlined), respectively, and used to amplify the complete coding sequence using Q5 High-Fidelity DNA polymerase following manufacturer recommendations (New England Biolabs, Whitby, ON). […] The resulting products were cloned into pGEM-T Easy sequencing vector, and miniprep samples were sequenced to verify base accuracy. […]
# Chinese hamster ovary cells (CHO-K1) described previously ([Paluzzi et al., 2012]; [Gondalia et al., 2016]; [Wahedi and Paluzzi, 2018]) were grown in Dulbecco’s modified eagles medium: nutrient F12 (DMEM:F12) media containing 10% heat-inactivated fetal bovine serum (FBS; Wisent, St. Bruno, QC, Canada), 200 μg/mL geneticin, and antimycotic-antibiotic mixture as described previously ([Wahedi and Paluzzi, 2018]). […] Various concentrations of synthesized PK peptides and other peptides (purity > 90%; Genscript, Piscataway, NJ, United States) were prepared in BSA media and loaded in quadruplicate into white 96-well luminescence plates (Greiner Bio-One, Germany). […]
# A. aegypti PK2-R = molecular target: T1, A. aegypti PK2-R (Aedes aegypti, UniProt V9P4J1); assay: Heterologous functional receptor assay (aequorin bioluminescence), PK2-R; format: cell-based; conditions: CHO-K1 cells expressing PK2-R
# T1 sequence (V9P4J1 1-638): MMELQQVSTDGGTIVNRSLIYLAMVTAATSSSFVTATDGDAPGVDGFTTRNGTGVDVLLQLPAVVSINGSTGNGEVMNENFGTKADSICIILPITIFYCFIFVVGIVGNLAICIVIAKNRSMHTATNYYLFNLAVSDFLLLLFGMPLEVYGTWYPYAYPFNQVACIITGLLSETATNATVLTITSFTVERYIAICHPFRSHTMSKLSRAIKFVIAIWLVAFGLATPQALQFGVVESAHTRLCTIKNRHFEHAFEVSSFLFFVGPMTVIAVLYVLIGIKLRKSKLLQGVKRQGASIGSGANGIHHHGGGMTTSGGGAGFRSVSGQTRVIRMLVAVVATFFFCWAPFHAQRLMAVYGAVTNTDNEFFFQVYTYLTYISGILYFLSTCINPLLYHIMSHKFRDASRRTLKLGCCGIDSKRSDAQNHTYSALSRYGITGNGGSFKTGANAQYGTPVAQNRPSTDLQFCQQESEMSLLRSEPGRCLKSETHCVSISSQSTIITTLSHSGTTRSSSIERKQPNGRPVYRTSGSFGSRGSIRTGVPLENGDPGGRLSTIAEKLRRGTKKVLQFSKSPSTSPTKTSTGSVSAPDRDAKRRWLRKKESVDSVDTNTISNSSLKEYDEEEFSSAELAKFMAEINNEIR
# From the text: The complete open reading frame was amplified based on the partial ([Nene et al., 2007]) and complete sequences ([Choi et al., 2013]) reported earlier for the A. aegypti PK1-R (Genbank accession: EAT35008.1) and PK2-R (Genbank accession: KC155994.1). Forward 5′-[…]-3′ (PK1-R) or 5′-[…]-3′ (PK2-R) and reverse 5′-[…]-3′ (PK1-R) or 5′-[…]-3′ (PK2-R) primers were designed over the start and stop codons (underlined), respectively, and used to amplify the complete coding sequence using Q5 High-Fidelity DNA polymerase following manufacturer recommendations (New England Biolabs, Whitby, ON). […] The resulting products were cloned into pGEM-T Easy sequencing vector, and miniprep samples were sequenced to verify base accuracy. The receptor constructs were excised using standard restriction enzyme digestion and subcloned into the mammalian expression vector, pcDNA 3.1^+ (Life Technologies, Burlington, ON, Canada). Transfection quality plasmid DNA was purified from an overnight bacterial culture using the PureLink MidiPrep Kit (Invitrogen, Burlington, ON, Canada) following manufacturer guidelines.
# Chinese hamster ovary cells (CHO-K1) described previously ([Paluzzi et al., 2012]; [Gondalia et al., 2016]; [Wahedi and Paluzzi, 2018]) were grown in Dulbecco’s modified eagles medium: nutrient F12 (DMEM:F12) media containing 10% heat-inactivated fetal bovine serum (FBS; Wisent, St. Bruno, QC, Canada), 200 μg/mL geneticin, and antimycotic-antibiotic mixture as described previously ([Wahedi and Paluzzi, 2018]). […] Various concentrations of synthesized PK peptides and other peptides (purity > 90%; Genscript, Piscataway, NJ, United States) were prepared in BSA media and loaded in quadruplicate into white 96-well luminescence plates (Greiner Bio-One, Germany).
# Luminescence responses to A. aegypti CAPA-1 (GPTVGLFAFPRV-NH2), CAPA-2 (pQGLVPFPRV-NH2) and CAPA-PK1 (AGNSGANSGMWFGPRL-NH2) peptides, along with the R. prolixus PK2 orthologs, PK2a (NTVNFSPRL-NH2), and PK2b (SPPFAPRL-NH2) were examined. A list of peptides used in this study and sequence comparison to native A. aegypti pyrokinin peptides is found in Supplementary Table S1. Cells prepared for the functional assay were loaded into each well of the plate using an automated injector unit and luminescent response was measured with a Synergy 2 Multi-Mode Microplate Reader (BioTek, Winooski, VT, United States). Negative controls were carried out using BSA media alone whereas 50 μM ATP, which activates endogenously expressed purinoceptors ([Iredale and Hill, 1993]; [Michel et al., 1998]), was used as a positive control. Luminescence responses were normalized to ATP responses and analyzed in GraphPad Prism 7.02 (GraphPad Software, San Diego, CA, United States). EC50 values were determined using dose-response curves from multiple biological replicates.
# [3] = test system: anti-RhoprCAPA-2 primary antiserum (antigen EGGFISFPRV-NH2); assay: Competitive ELISA for antibody cross-reactivity; format: binding, rabbit; conditions: antiserum 1:1000; absorbance at 450 nm; mean ± SEM, n = 4; read-out: IC50, competitive ELISA against 1 nM biotinylated-DromeCAPA
# Protocol: In brief, 96-well plates were coated with anti-RhoprCAPA-2 primary antiserum diluted to 1:1000 in carbonate buffer (15 mM Na2CO3-H2O and 35 mM NaHCO3 in water; pH 9.4) and incubated overnight at 4°C. Plate contents were discarded, blotted, and rinsed three times with wash buffer (350 mM NaCl, 2.7 mM KCl, 1.5 mM KH2PO4, 5.15 mM Na2HPO4-H2O, and 0.05% Tween-20 (v/v) in water). Wells were then incubated for 1.5 h on a rocker with block buffer [0.5% skim milk powder (w/v) and 0.5% BSA (w/v) in PBS]. The block solution was discarded, and standard solutions were added (100 μL/well). Standards consisted of AedaeCAPA-1 and AedaeCAPA-2 diluted in block buffer to achieve concentrations ranging from 250 pM to 250 nM, or AedaeCAPA-PK1 and RhoprPK2b from 4.8 nM to 75 uM. After a 1.5 h incubation on a rocker, 1 nM biotinylated-DromeCAPA diluted in block buffer ([MacMillan et al., 2018]) was added (100 μL/well) to compete with the unlabeled peptide standards for antibody binding. Following overnight incubation at 4°C, the wells were washed four times with wash buffer, and incubated at 4°C for 1.5 h with Avidin-HRP (1:2000; Bio-Rad, Mississauga, ON, Canada). […] Reactions were stopped with 100 μL/well 2N HCl and absorbance at 450 nm was measured using a Synergy 2 Multi-Mode Microplate Reader (BioTek, Winooski, VT, United States).
smiles,measurement,setting,value
"NCCc1c[nH]c2ccc(O)cc12 [5-HT, 5-hydroxytryptamine]",fold change in contraction rate of female recta relative to baseline in saline,[1]; female recta,1.97 fold
same,fold change in contraction rate of male recta relative to baseline in saline,[1]; male recta,2.48 fold
same,ileal contraction frequency relative to baseline,"[2]; 2-min recordings, mean of 15 preparations",2.88 fold
same,duration of each ileal contraction relative to baseline,[2]; 15 preparations,effectively reduced
same,length of time between ileal contractions relative to baseline,[2]; 15 preparations,effectively reduced
CC(C)C[C@H](NC(=O)CNC(=O)[C@@H]1CCC(=O)N1)C(=O)N[C@H](C(=O)N1CCC[C@H]1C(=O)N[C@@H](Cc1ccccc1)C(=O)N1CCC[C@H]1C(=O)N[C@@H](CCCNC(=N)N)C(=O)N[C@H](C(N)=O)C(C)C)C(C)C [AedaeCAPA-2] ([pGlu]GLVPFPRV-NH2),activation of PK1-R (in words),A. aegypti PK1-R,effective in activating PK1-R at high concentrations
same,activation of PK2-R (in words),A. aegypti PK2-R; luminescent response,only active on PK2-R at very high concentrations
same,activation of PK2-R relative to the highly potent pyrokinins,A. aegypti PK2-R; very high concentrations,≤ 25%
same,IC50,[3],16.9 nM

# — publication PMC7255104, “Receptor Characterization and Functional Activity of Pyrokinins on the Hindgut in the Adult Mosquito, Aedes aegypti” (Frontiers in Physiology, 2020)
